Assay results taken from US11596639B2, “Substituted indole Mcl-1 inhibitors” (Vanderbilt University, priority 2016, dated 2023).
Like-named read-outs stand apart in the source and are kept apart here.

Columns and labels:
Mcl-1 = Mcl-1 (Homo sapiens (Human), UniProt Q07820); test: Fluorescence polarization anisotropy (FPA) competition assay, FITC-Bak or FITC-Bim BH3 peptide; assay type: binding; conditions: read-out: Ki for Inhibition of Mcl-1 by FPA assay
[1] = system: H929 human cancer cell lines; test: Cellular viability / proliferation (Cell TiterGlo, 72 h); assay type: cell-based
Outline: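 Top dose 50 μM, serially diluted 2-fold, applied one day after seeding (1,000 cells/well, 10% FBS), DMSO below 1%.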

[2] = H929 cells, 72 h, Cell TiterGlo, 10% FBS, read-out: GI50 on cellular proliferation of H929 human cancer cell lines
[3] = Homo sapiens, NCI-H929, 72 h, read-out: GI50 on cellular proliferation of H929 human cancer cell lines, H929 cells, 72 h, Cell TiterGlo, 10% FBS

Chain of Mcl-1 (Q07820 172-327): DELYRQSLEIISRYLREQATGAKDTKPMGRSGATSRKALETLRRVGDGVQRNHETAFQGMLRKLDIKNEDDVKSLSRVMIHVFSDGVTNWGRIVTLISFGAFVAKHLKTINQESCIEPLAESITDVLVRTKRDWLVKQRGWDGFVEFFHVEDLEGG

SMILES | Ki (Mcl-1) [nM] | GI50 [1, 2] [nM] | GI50 [1, 3] [nM]
COc1cc(N2C[C@@H](C)n3c(c(CCCOc4cc(C)c(Cl)c(C)c4)c4ccc(Cl)c(-c5c(C)nn(C)c5C)c43)C2=O)c2cc(C(=O)O)n(C)c2c1 [Example 334, (M, R)-4-(7-Chloro-10-(3-(4-chloro-3,5-dimethylphenoxy)propyl)-4-methyl-1-oxo-6-(1,3,5-trimethyl-1H-pyrazol-4-yl)-3,4-dihydropyrazino[1,2-a]indol-2(1H)-yl)-6-methoxy-1-methyl-1H-indole-2-carboxylic acid] | < 1 | 1200 | –
Cc1cc(OCCCc2c3n(c4c(-c5c(C)nn(C)c5C)c(Cl)ccc24)[C@H](C)CN(c2cn(C)c4ccc(-c5ncccn5)cc24)C3=O)cc(C)c1Cl [Example 394, (R)-7-Chloro-10-(3-(4-chloro-3,5-dimethylphenoxy)propyl)-4-methyl-2-(1-methyl-5-(pyrimidin-2-yl)-1H-indol-3-yl)-6-(1,3,5-trimethyl-1H-pyrazol-4-yl)-3,4-dihydropyrazino[1,2-a]indol-1(2H)-one] | 2.8 | – | 270
Cc1cc(OCCCc2c3n(c4c(-c5c(C)nn(CCN6CCCC6)c5C)c(Cl)ccc24)[C@H](C)CN(c2cn(C)c4ccc(C(N)=O)cc24)C3=O)cc(C)c1Cl [Example 392, (R)-3-(7-chloro-10-(3-(4-chloro-3,5-dimethylphenoxy)propyl)-6-(3,5-dimethyl-1-(2-(pyrrolidin-1-yl)ethyl)-1H-pyrazol-4-yl)-4-methyl-1-oxo-3,4-dihydropyrazino[1,2-a]indol-2(1H)-yl)-1-methyl-1H-indole-5-carboxamide] | 23 | – | 950
Cc1cc(OCCCc2c3n(c4c(-c5c(C)nn(C)c5C)c(Cl)ccc24)CCCN(c2cccc4c(-c5nn[nH]n5)cn(C)c24)C3=O)cc(C)c1Cl [Example 15, 8-Chloro-11-[3-(4-chloro-3,5-dimethyl-phenoxy)propyl]-2-[1-methyl-3-(2H-tetrazol-5-yl)indol-7-yl]-7-(1,3,5-trimethylpyrazol-4-yl)-4,5-dihydro-3H-[1,4]diazepino[1,2-a]indol-1-one] | 2.2 | – | 11000
Cc1cc(OCCCc2c3n(c4c(-c5c(C)nn(C)c5C)c(Cl)ccc24)[C@H](C)CN(c2cccc4cc(C(=O)O)n(CC5CC5)c24)C3=O)cc(C)c1Cl [Example 254, 7-[(4R)-7-chloro-10-[3-(4-chloro-3,5-dimethyl-phenoxy)propyl]-4-methyl-1-oxo-6-(1,3,5-trimethylpyrazol-4-yl)-3,4-dihydropyrazino[1,2-a]indol-2-yl]-1-(cyclopropylmethyl)indole-2-carboxylic acid] | < 1 | – | 580
CC[C@@H]1Cn2c(c(CCCOc3cc(C)c(Cl)c(C)c3)c3ccc(Cl)c(-c4c(C)nn(C)c4C)c32)C(=O)N1c1cc(C(=O)O)c2c(ccn2C)c1 [Example 41, (R)-5-(7-chloro-10-(3-(4-chloro-3,5-dimethylphenoxy)propyl)-3-ethyl-1-oxo-6-(1,3,5-trimethyl-1H-pyrazol-4-yl)-3,4-dihydropyrazino[1,2-a]indol-2(1H)-yl)-1-methyl-1H-indole-7-carboxylic acid] | 1.8 | – | 1200
Cc1cc(OCCCc2c3n(c4c(-c5c(C)nc(CN6CCN(C)CC6)nc5C)c(Cl)ccc24)[C@H](C)CN(c2cn(C)c4ccc(C(=O)O)cc24)C3=O)cc(C)c1Cl [Example 396, (R)-3-(7-Chloro-10-(3-(4-chloro-3,5-dimethylphenoxy)propyl)-6-(4,6-dimethyl-2-((4-methylpiperazin-1-yl)methyl)pyrimidin-5-yl)-4-methyl-1-oxo-3,4-dihydropyrazino[1,2-a]indol-2(1H)-yl)-1-methyl-1H-indole-5-carboxylic acid] | 1.8 | – | < 200
Cc1cc(OCCCc2c3n(c4c(-c5c(C)ncnc5C)c(Cl)ccc24)[C@H](C)CN(c2cn(C)c4ccc(C(N)=O)cc24)C3=O)cc(C)c1Cl [Example 269, 3-[(4R)-7-chloro-10-[3-(4-chloro-3,5-dimethyl-phenoxy)propyl]-6-(4,6-dimethylpyrimidin-5-yl)-4-methyl-1-oxo-3,4-dihydropyrazino[1,2-a]indol-2-yl]-1-methyl-indole-5-carboxamide] | 7.4 | – | 760
Cc1cc(OCCCc2c3n(c4c(-c5c(C)nn(C)c5C)c(Cl)ccc24)CCCN(c2cc(C(=O)O)cc4c2ccn4S(C)(=O)=O)C3=O)cc(C)c1Cl [Example 32, 4-(8-Chloro-11-(3-(4-chloro-3,5-dimethylphenoxy)propyl)-1-oxo-7-(1,3,5-trimethyl-1H-pyrazol-4-yl)-4,5-dihydro-1H-[1,4]diazepino[1,2-a]indol-2(3H)-yl)-1-(methylsulfonyl)-1H-indole-6-carboxylic acid] | < 1 | – | 7600
COc1cc(C(=O)O)cc(N2CCCn3c(c(CCCOc4cc(C)c(Cl)c(C)c4)c4ccc(Cl)c(-c5c(C)nn(C)c5C)c43)C2=O)c1OCCOc1ccccc1F [Example 65, 3-[8-Chloro-11-[3-(4-chloro-3,5-dimethyl-phenoxy)propyl]-1-oxo-7-(1,3,5-trimethylpyrazol-4-yl)-4,5-dihydro-3H-[1,4]diazepino[1,2-a]indol-2-yl]-4-[2-(2-fluorophenoxy)ethoxy]-5-methoxy-benzoic acid] | 3.1 | – | 5500
Cc1cc(OCCCc2c3n(c4c(-c5c(C)ncnc5C)c(Cl)ccc24)[C@H](C)CN(c2cccc4c2cc(C(=O)O)n4C)C3=O)cc(C)c1Cl [Example 210, 4-[(4R)-7-chloro-10-[3-(4-chloro-3,5-dimethyl-phenoxy)propyl]-6-(4,6-dimethylpyrimidin-5-yl)-4-methyl-1-oxo-3,4-dihydropyrazino[1,2-a]indol-2-yl]-1-methyl-indole-2-carboxylic acid] | 1.3 | – | 1500
Cc1cc(OCCCc2c3n(c4c(-c5c(C)ncnc5C)c(Cl)ccc24)[C@H](C)CN(c2cccc4cc(C(=O)O)ccc24)C3=O)cc(C)c1Cl [Example 218, 5-[(4R)-7-chloro-10-[3-(4-chloro-3,5-dimethyl-phenoxy)propyl]-6-(4,6-dimethylpyrimidin-5-yl)-4-methyl-1-oxo-3,4-dihydropyrazino[1,2-a]indol-2-yl]naphthalene-2-carboxylic acid] | < 1 | – | < 200
Cc1cc(OCCCc2c3n(c4c(-c5c(C)nn(C)c5C)c(Cl)ccc24)[C@H](C)CN(c2cccc4cc5n(c24)CCNC5=O)C3=O)cc(C)c1Cl [Example 434, (R)-7-Chloro-10-(3-(4-chloro-3,5-dimethylphenoxy)propyl)-4-methyl-6-(1,3,5-trimethyl-1H-pyrazol-4-yl)-3,3′,4,4′-tetrahydro-1H-[2,6′-bipyrazino[1,2-a]indole]-1,1′(2′H)-dione] | 5.5 | – | 890
Cc1cc(OCCCc2c3n(c4c(-c5c(C)nn(C)c5C)c(Cl)ccc24)[C@H](C)CN(c2cn(CCC4CCOCC4)c4ccc(C(=O)O)cc24)C3=O)cc(C)c1Cl [Example 240, (R)-3-(7-Chloro-10-(3-(4-chloro-3,5-dimethylphenoxy)propyl)-4-methyl-1-oxo-6-(1,3,5-trimethyl-1H-pyrazol-4-yl)-3,4-dihydropyrazino[1,2-a]indol-2(1H)-yl)-1-(2-(tetrahydro-2H-pyran-4-yl)ethyl)-1H-indole-5-carboxylic acid] | < 1 | – | 1900
Cc1cc(OCCCc2c3n(c4c(-c5c(C)nn(C)c5C)c(Cl)ccc24)[C@H](C)CN(c2cn(C)c4cc(C#N)ccc24)C3=O)cc(C)c1Cl [Example 206, (R)-3-(7-Chloro-10-(3-(4-chloro-3,5-dimethylphenoxy)propyl)-4-methyl-1-oxo-6-(1,3,5-trimethyl-1H-pyrazol-4-yl)-3,4-dihydropyrazino[1,2-a]indol-2(1H)-yl)-1-methyl-1H-indole-6-carbonitrile] | < 1 | – | 3200
COCCOc1cc(N2C[C@@H](C)n3c(c(CCCOc4cc(C)c(Cl)c(C)c4)c4ccc(Cl)c(-c5c(C)nn(C)c5C)c43)C2=O)c2c(c1)cc(C(=O)O)n2C [Example 461, (R)-7-(7-Chloro-10-(3-(4-chloro-3,5-dimethylphenoxy)propyl)-4-methyl-1-oxo-6-(1,3,5-trimethyl-1H-pyrazol-4-yl)-3,4-dihydropyrazino[1,2-a]indol-2(1H)-yl)-5-(2-methoxyethoxy)-1-methyl-1H-indole-2-carboxylic acid] | < 1 | – | < 200
COC(=O)c1ccc2c(c1)c(N1C[C@@H](C)n3c(c(CCCOc4cc(C)c(Cl)c(C)c4)c4ccc(Cl)c(-c5c(C)nn(C)c5C)c43)C1=O)cn2C (single isomer, unassigned) [Example 204] | 1.1 | – | 1000
Cc1cc(OCCCc2c3n(c4c(-c5c(C)ncnc5C)c(Cl)ccc24)CCCN(c2cccc4cc(C(=O)O)n(C)c24)C3=O)cc(C)c1Cl [Example 219, 7-[8-Chloro-11-[3-(4-chloro-3,5-dimethyl-phenoxy)propyl]-7-(4,6-dimethylpyrimidin-5-yl)-1-oxo-4,5-dihydro-3H-[1,4]diazepino[1,2-a]indol-2-yl]-1-methyl-indole-2-carboxylic acid] | 2.2 | – | 1200
Cc1cc(OCCCc2c3n(c4c(-c5c(C)nn(C)c5C)c(Cl)ccc24)[C@H](C)CN(c2cc(OCc4ccccc4)cc4c2cc(C(=O)O)n4C)C3=O)cc(C)c1Cl [Example 297, (P, R)-6-(benzyloxy)-4-(7-chloro-10-(3-(4-chloro-3,5-dimethylphenoxy)propyl)-4-methyl-1-oxo-6-(1,3,5-trimethyl-1H-pyrazol-4-yl)-3,4-dihydropyrazino[1,2-a]indol-2(1H)-yl)-1-methyl-1H-indole-2-carboxylic acid] | 2.4 | 7900 | –
